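Exposure lasted 48 hours, with cells grown in 96-well plates and compounds tested at five concentrations. At the TGI there is no net growth.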
Assays:
Experiment in all cases: NCI tumour cell line growth inhibition, 48 h
[1] = system: A549 NSCLC
[2] = system: MDA-MB-435
[3] = system: HL-60(TB) leukemia
[4] = system: HS 578T breast
[5] = system: OVCAR-5 ovarian
[6] = system: UO-31 renal
[7] = system: NCI-H23 lung
[8] = system: MOLT-4 leukemia
[9] = system: SF-295 CNS
[10] = system: OVCAR-4 ovarian
[11] = system: BT-549 breast
[12] = system: TK-10 renal
[13] = system: NCI/ADR-RES ovarian
[14] = system: SK-MEL-5 melanoma
[15] = system: SF-268 CNS
[16] = system: KM12 colon
[17] = system: SK-OV-3 ovarian
[18] = system: A498 renal
[19] = system: T-47D breast
[20] = system: HCT-116 colon
[21] = system: HT29 colon
[22] = system: HOP-62 NSCLC
[23] = system: K-562 leukemia
[24] = system: MCF7 breast
[25] = system: MDA-MB-231 breast
[26] = system: IGROV1 ovarian
[27] = system: ACHN renal
[28] = system: MALME-3M melanoma
[29] = system: DU-145 prostate
[30] = system: M14 melanoma
[31] = system: PC-3 prostate
[32] = system: SK-MEL-2 melanoma
[33] = system: SF-539 CNS
[34] = system: HOP-92 NSCLC
[35] = system: SR leukemia
[36] = system: NCI-H522 lung
[37] = system: MDA-N
[38] = system: RXF 393 renal
[39] = system: SK-MEL-28 melanoma
[40] = system: HCC-2998 colon
[41] = system: COLO 205 colon
[42] = system: UACC-62 melanoma
[43] = system: HCT-15 colon
[44] = system: SW-620 colon
[45] = system: 786-0 renal
[46] = system: UACC-257 melanoma
[47] = system: OVCAR-8 ovarian
[48] = system: NCI-H460 lung
[49] = system: U251 CNS
[50] = system: CAKI-1 renal
[51] = system: SNB-75 CNS
[52] = system: CCRF-CEM leukemia
[53] = system: SN12C renal
[54] = system: OVCAR-3 ovarian
[55] = system: LOX IMVI melanoma
[56] = system: RPMI-8226 leukemia
[57] = system: SNB-19 CNS
[58] = system: EKVX NSCLC
[59] = system: NCI-H226 lung

SMILES: Cc1nc(C)c(N2CCN(S(=O)(=O)N(Cc3ccccc3)Cc3ccccc3)CC2)c(=O)[nH]1
- TGI [1]: > 100 µM
- TGI [2]: > 100 µM
- TGI [3]: > 100 µM
- TGI [4]: 38.8 µM
- TGI [5]: > 100 µM
- TGI [6]: > 100 µM
- TGI [7]: 56.5 µM
- TGI [8]: > 100 µM
- TGI [9]: > 83.6 µM
- TGI [10]: > 100 µM
- TGI [11]: > 100 µM
- TGI [12]: > 72.9 µM
- TGI [13]: > 100 µM
- TGI [14]: > 100 µM
- TGI [15]: > 75 µM
- TGI [16]: > 100 µM
- TGI [17]: > 54.2 µM
- TGI [18]: > 75.7 µM
- TGI [19]: > 85.7 µM
- TGI [20]: > 100 µM
- TGI [21]: > 100 µM
- TGI [22]: 37.9 µM
- TGI [23]: > 100 µM
- TGI [24]: > 100 µM
- TGI [25]: > 64.5 µM
- TGI [26]: > 100 µM
- TGI [27]: > 73 µM
- TGI [28]: > 100 µM
- TGI [29]: > 100 µM
- TGI [30]: > 100 µM
- TGI [31]: > 100 µM
- TGI [32]: > 100 µM
- TGI [33]: 42.5 µM
- TGI [34]: > 78.1 µM
- TGI [35]: > 100 µM
- TGI [36]: 65.1 µM
- TGI [37]: > 100 µM
- TGI [38]: 38 µM
- TGI [39]: > 100 µM
- TGI [40]: > 100 µM
- TGI [41]: > 100 µM
- TGI [42]: > 100 µM
- TGI [43]: > 100 µM
- TGI [44]: > 100 µM
- TGI [45]: 23.5 µM
- TGI [46]: > 100 µM
- TGI [47]: 54.1 µM
- TGI [48]: > 100 µM
- TGI [49]: 20.4 µM
- TGI [50]: > 47.9 µM
- TGI [51]: 32.9 µM
- TGI [52]: > 100 µM
- TGI [53]: > 100 µM
- TGI [54]: > 100 µM
- TGI [55]: > 100 µM
- TGI [56]: > 100 µM
- TGI [57]: 27.6 µM
- TGI [58]: > 100 µM

SMILES: Cc1ccccc1OC(C)C(=O)NN1C(=O)CSC1c1ccc(Cl)cc1 (stereo not drawn)
- TGI [1]: > 100 µM
- TGI [2]: > 100 µM
- TGI [3]: 47.5 µM
- TGI [4]: > 100 µM
- TGI [5]: > 100 µM
- TGI [6]: > 100 µM
- TGI [59]: > 82.6 µM
- TGI [7]: > 100 µM
- TGI [8]: > 59.7 µM
- TGI [9]: > 61.3 µM
- TGI [10]: > 100 µM
- TGI [11]: 98.9 µM
- TGI [12]: > 100 µM
- TGI [13]: > 100 µM
- TGI [14]: > 100 µM
- TGI [15]: > 67.4 µM
- TGI [16]: > 100 µM
- TGI [17]: > 92.5 µM
- TGI [18]: 72.3 µM
- TGI [19]: > 100 µM
- TGI [20]: > 95.5 µM
- TGI [21]: 38.6 µM
- TGI [22]: 51.2 µM
- TGI [23]: > 77.1 µM
- TGI [24]: > 100 µM
- TGI [25]: 86 µM
- TGI [26]: > 100 µM
- TGI [27]: > 68.9 µM
- TGI [28]: > 100 µM
- TGI [29]: > 100 µM
- TGI [30]: > 100 µM
- TGI [31]: > 100 µM
- TGI [32]: > 100 µM
- TGI [33]: > 63.1 µM
- TGI [34]: > 100 µM
- TGI [35]: > 46.3 µM
- TGI [36]: > 29.4 µM
- TGI [37]: > 100 µM
- TGI [38]: > 86.9 µM
- TGI [39]: > 100 µM
- TGI [40]: > 100 µM
- TGI [41]: > 100 µM
- TGI [42]: > 100 µM
- TGI [43]: > 100 µM
- TGI [44]: > 81.2 µM
- TGI [45]: 34.8 µM
- TGI [46]: > 100 µM
- TGI [47]: > 100 µM
- TGI [48]: > 56.8 µM
- TGI [49]: > 93.4 µM
- TGI [50]: > 100 µM
- TGI [51]: > 100 µM
- TGI [53]: 35.3 µM
- TGI [54]: > 93.6 µM
- TGI [55]: > 58.8 µM
- TGI [56]: > 61 µM
- TGI [57]: > 100 µM
- TGI [58]: > 100 µM

SMILES: C=CCC1CC(n2cc(C)c(=O)[nH]c2=O)OC1CO[Si](C)(C)C(C)(C)C (stereo not drawn)
- TGI [1]: 26.8 µM
- TGI [2]: 28.2 µM
- TGI [4]: 29.4 µM
- TGI [5]: 31.7 µM
- TGI [6]: 24.9 µM
- TGI [59]: 28.4 µM
- TGI [7]: 27.1 µM
- TGI [9]: 40 µM
- TGI [10]: 28.5 µM
- TGI [11]: 29.6 µM
- TGI [12]: 30.1 µM
- TGI [13]: 31.5 µM
- TGI [14]: 29.9 µM
- TGI [15]: 30.9 µM
- TGI [16]: 35 µM
- TGI [17]: 29.2 µM
- TGI [18]: 34.5 µM
- TGI [19]: 26.8 µM
- TGI [20]: 24.6 µM
- TGI [21]: 30.9 µM
- TGI [22]: 34.7 µM
- TGI [23]: 24.3 µM
- TGI [24]: 29.1 µM
- TGI [25]: 28.9 µM
- TGI [26]: 23.4 µM
- TGI [27]: 29.8 µM
- TGI [28]: 23.2 µM
- TGI [29]: 31.1 µM
- TGI [30]: 33.5 µM
- TGI [31]: 25.1 µM
- TGI [32]: 32.8 µM
- TGI [33]: 28.3 µM
- TGI [34]: 31 µM
- TGI [35]: 11.5 µM
- TGI [36]: 23.1 µM
- TGI [37]: 27.4 µM
- TGI [38]: 15.9 µM
- TGI [39]: 30.4 µM
- TGI [40]: 35.5 µM
- TGI [41]: 27 µM
- TGI [42]: 31.7 µM
- TGI [43]: 29.1 µM
- TGI [44]: 31.9 µM
- TGI [45]: 28.8 µM
- TGI [46]: 33.8 µM
- TGI [47]: 28.5 µM
- TGI [48]: 38.9 µM
- TGI [49]: 29.6 µM
- TGI [50]: 31.8 µM
- TGI [51]: 25.4 µM
- TGI [52]: 29.9 µM
- TGI [53]: 29.1 µM
- TGI [54]: 31 µM
- TGI [55]: 26.2 µM
- TGI [56]: 47.5 µM
- TGI [57]: 30.2 µM
- TGI [58]: 19.8 µM

SMILES: CN(C(=O)Cc1ccccc1)n1cnn(CC(=O)OC(C)(C)C)c1=S
- TGI [1]: > 10 µM
- TGI [2]: > 10 µM
- TGI [4]: > 10 µM
- TGI [5]: > 10 µM
- TGI [6]: > 10 µM
- TGI [7]: > 10 µM
- TGI [8]: > 10 µM
- TGI [9]: > 10 µM
- TGI [10]: > 10 µM
- TGI [11]: > 10 µM
- TGI [12]: > 10 µM
- TGI [13]: > 10 µM
- TGI [14]: > 10 µM
- TGI [15]: > 10 µM
- TGI [16]: > 10 µM
- TGI [17]: > 10 µM
- TGI [18]: > 10 µM
- TGI [19]: > 10 µM
- TGI [20]: > 10 µM
- TGI [21]: > 10 µM
- TGI [22]: > 10 µM
- TGI [23]: > 10 µM
- TGI [24]: > 10 µM
- TGI [25]: > 10 µM
- TGI [26]: > 10 µM
- TGI [27]: > 10 µM
- TGI [28]: > 10 µM
- TGI [29]: > 10 µM
- TGI [30]: > 10 µM
- TGI [31]: > 10 µM
- TGI [33]: > 10 µM
- TGI [34]: > 10 µM
- TGI [35]: > 10 µM
- TGI [36]: > 10 µM
- TGI [37]: > 10 µM
- TGI [39]: > 10 µM
- TGI [40]: > 10 µM
- TGI [41]: > 10 µM
- TGI [42]: > 10 µM
- TGI [43]: > 10 µM
- TGI [44]: > 10 µM
- TGI [45]: > 10 µM
- TGI [46]: > 10 µM
- TGI [47]: > 10 µM
- TGI [48]: > 10 µM
- TGI [49]: > 10 µM
- TGI [50]: > 10 µM
- TGI [51]: > 10 µM
- TGI [52]: > 10 µM
- TGI [53]: > 10 µM
- TGI [54]: > 10 µM
- TGI [55]: > 10 µM
- TGI [56]: > 10 µM
- TGI [57]: > 10 µM
- TGI [58]: > 10 µM

Source: PubChem BioAssay (NCI)
